The numbers were not newly measured in patent publication US20130202706A1 (DRUGGABILITY TECHNOLOGIES IP HOLDCO (JERSEY) LTD., priority 2010, published 2013), which cites them from elsewhere.

For the data set the following is noted: oral administration.

Turning to `CC(C)c1c(C(=O)Nc2ccccc2)c(-c2ccccc2)c(-c2ccc(F)cc2)n1CC[C@@H](O)C[C@@H](O)CC(=O)O` [Atorvastatin], the “systemic availability of HMG-CoA reductase inhibitory activity” value is on record as “approximately 30%”.
